The subject of data set [1] is normal human dermal fibroblasts (NHDF). The data set is described as follows: PI-uptake assay, NHDF. It is filed as cell-based. The note with it: 8 h. An excerpt: (§1) Epidermis was separated. […] The pellet was resuspended in melanocyte growth media (Biomedica). […] All cell cultures were periodically checked for mycoplasma.
The next data set concerns A375 melanoma cell line. The settings on record: 20 μM peptide, 8 h, PI-uptake.
Excerpt: as §1

In data set [2] the test system is U87 mg glioblastoma cell line. The note with it: 20 μM peptide, 8 h, PI-uptake.
Excerpt: as §1

The subject of data set [3] is non-cancer cells (melanocytes, NHDF). The data set is described as follows: PI-uptake assay, non-cancer cells pooled. The settings on record: 20 μM peptide, up to 8 h.
Description: The primary human melanoma cell line SBcl2 and the metastatic melanoma WM164 were maintained in RPMI (Sigma) supplemented with 2% FBS, 2% L-glutamine and 1% Pen/Strep. Glioblastoma (U87-mg) purchased from CLS (Cell Line Service Heidelberg, Germany) and Rhabdomyosarcoma cell lines (TE671) purchased from ECAAC (Health Protection Agency Culture Collections Salisbury, UK) are cultured in Dulbecco's Modified Eagle Medium (DMEM) with addition of 2 mM Glutamine, 10% FBS (fetal bovine serum). Melanoma cell line A375 CLS (Cell Line Service Heidelberg, Germany) was cultured in Dulbecco's Modified Eagle Medium (DMEM)(PAA) with addition of 2 mM Glutamine and 10% FBS (fetal bovine serum. Human melanocytes used as healthy control cells: were isolated from the foreskin). The foreskin was cut into small pieces and incubated with 0.3% trypsin (PAA) overnight at 4° C. and for one hour at 37° C. Epidermis was separated. Cells were mechanically removed from the cell layer and centrifuged at 300 g for 3 min. The pellet was resuspended in melanocyte growth media (Biomedica). Melanocytes were further cultured in human melanocytes growth medium (PromoCell GmbH). […]
For detection of PI-uptake by fluorescence spectroscopy experiments were performed according to the following protocol. […]
Cytotoxicity was calculated from the percentage of PI positive cells in media alone (P0) and in the presence of peptide (PX). […]
In data set [4] the test system is cancer cells (SBcl-2, WM164). The settings on record: read-out: IC50 against cancer cells (MTS), 24 h, FIG. 6C. As to the method: as §1
(§2) Cell proliferation was measured by using a CellTiter 96 AQ nonradioactive cell proliferation assay (Promega). Cells were plated in 96-well plates and grown until confluence. Peptides were added to a final concentration of 5-100 μM. After incubation for 24 h at 37° C. (5% CO2) MTS [3-(4,5-dimethylthiazol-2yl)-5-(3-carboxymethoxyphenyl)-2-(4-sulfophenyl)-2H-tetrazolium]-phenozine methosulfate solution (20 μl/well) was added and cells were again incubated for 2 h at 37° C. (5% CO2). The MIS compound is bioreduced by cells into a colored formazan product that is soluble in tissue culture medium. The quantity of the formazan product as measured by the amount of 490 nm absorbance is directly proportional to the number of living cells in culture. Data are calculated as a percentage of the control (untreated) samples and represent the average of three wells in one experiment which was repeated three times per cell line.
(§3) To determine long-time toxicity of peptides, a MTS cell proliferation assay was used to elucidate cell viability upon 24 h incubation with variant peptide concentration and human melanoma cell lines SBcl-2 and WM164 and non-differentiated human skin fibroblast cell line NHDF.

The subject of data set [5] is melanoma cell line SBcl-2. The data set is described as follows: PI-uptake assay, SBcl-2. The settings on record: 8 h; for IC50: PI-uptake. The data set is classed as cell-based, human. Here is the method: as §1
Cells were incubated in media containing serum for 8 h in the presence of peptides. Peptide concentrations were varied from 10 to 80 μM.

The subject of data set [6] is human red blood cells. The data set is described as follows: Hemolysis. It is filed as cell-based. The settings on record: for % lysis of 2.5% RBCs: one hour, 37° C.; for hemolysis IC50: human red blood cells. Here is the method:
The hemolytic activity towards human red blood cells (RBCs), which were obtained from heparinized human blood, was determined by the release of hemoglobin following one hour incubation at 37° C. in MHNA (Mueller Hinton cation Non Adjusted). Percentage of hemolysis of RBCs was calculated using 1% Triton as 100% lysis and PBS as 0% lysis, peptide concentration was 500 μg/ml.

The test system of data set [7] is cancer cells (SBcl-2, WM164, TE671). The data set is described as follows: PI-uptake assay, cancer cells pooled. The data set is classed as cell-based. The note with it: 20 μM peptide; for cytotoxic activity against cancer cells (killing): up to 8 h.
Excerpt: as §1

The test system of data set [8] is human skin fibroblast cell line NHDF. As to the kind of experiment: MTS cell proliferation assay, NHDF. The settings on record: read-out: IC50 Fibroblasts / NHDF (MTS); MTS cell viability assay, 24 h. As to the method:
as §1, §2, §3

Data set [9] concerns tumor over non tumor cells. The data set is described as follows: Specificity for tumor over non tumor cells (PI uptake studies). It is filed as cell-based, human. The note with it: for Cancer Specificity, -fold specificity for melanoma over non tumor skin cells: melanoma (SBcl2 or A375) over melanocytes or NHDF-c, 8 hours, PI uptake.
Excerpt: as §1

Data set [10] concerns melanoma metastasis WM164. The note with it: for IC50: read-out: IC50 WM164 (MTS), 24 h. As to the method:
as §1, §2, §3

Data set [11] deals with melanoma cell line SBcl-2. The data set is described as follows: MTS cell proliferation assay, SBcl-2. The settings on record: 24 h; for IC50: read-out: IC50 SBcl-2 (MTS), MTS cell viability assay. As to the method:
as §1, §2, §3

Data set [12] has as its system human red blood cells. The note with it: 500 μg/ml peptide; from Zweytick et al., J. Biol. Chem. 286 (2011); cited from earlier work.
A short description of data set [13]: MTS cell proliferation assay, NHDF. The note with it: human, NHDF (normal human dermal fibroblasts). Here is the method: as §1, §2, §3
Data set [14] relates to melanoma metastasis WM164. As to the kind of experiment: PI-uptake assay, WM164. The note with it: 20 μM peptide. It is filed as cell-based, human. Here is the method: as §1
(§4) Cells were incubated in media containing serum for 8 h in the presence of peptides. Peptide concentrations were varied from 10 to 80 μM. FIG. 3 illustrates that the peptide moiety PEP-322 is only minor active against the melanoma cell line SBcl-2 with less than 5% killing at a peptide concentration of 80 μM, as well as against melanocytes with a moderate two-fold selectivity for WM164 cells at 20 μM peptide concentration (FIG. 3C).

The subject of data set [15] is differentiated non-tumorigenic melanocytes. The data set is described as follows: PI-uptake assay, melanocytes. The data set is classed as cell-based, human. The settings on record: 20 μM peptide, 8 h. Here is the method: as §1, §4
Data set [16] can be described thus: Tryptophan fluorescence and quenching, cancer mimic. The note with it: in presence of target lipid PS. Here is the method: (§5) Tryptophan fluorescence spectra were obtained at room temperature using an excitation wavelength of 282 nm and a slit width of 5 nm for excitation and emission monochromators. Quenching of Tryptophan was carried out in the presence and absence of phospholipid liposomes (lipid to peptide ratio 25:1) using 0.1, 0.4 and 0.7 M acrylamide. The data were analyzed according to the Stern-Volmer equation: F0/F=1+KSV[Q] where F0 and F represent the fluorescence emission intensities in the absence and presence of the quencher molecule (Q) and KSV is the Stern-Volmer quenching constant, which is a quantitative measure for the accessibility of tryptophan to acrylamide (Tao, T. and Cho, J. Biochemistry 18(1979), 2759-2765).

Data set [17] concerns caspase-3/7 activity of melanoma cell line SBcl-2. As to the kind of experiment: Spectrofluorimetric analysis of caspase-3/7 activity. The data set is classed as cell-based, human. The settings on record: SBcl-2, 10-20 μM peptide, 4 hours. Here is the method:
Spectrofluorimetric analysis of caspase-3/7 activity 5×10^5 cells/ml were seeded into 96-well plate and grown overnight at 37° C. and 5% CO2. Cells were incubated with different concentrations of peptide for 4 hours. Apo-ONE® caspase-3/7 reagent was added in a 1:1 volume ratio and cells were incubated for 4 hours. Cells were then analyzed by fluorescence spectroscopy (GloMax®-Multi+ Microplate Multimode Reader with Instinc™). Untreated cells were used as negative control. Analysis was performed with Apo-ONE® Homogeneous Caspase-3/7 Assay (see FIG. 7).

Data set [18] is described as follows: Tryptophan fluorescence and quenching, healthy mimic. The settings on record: in presence of PC. Here is the method:
as §5

“Also recorded” adds a separate entry of the source. Read-outs that look alike come from different tables or passages of the source. Marks after values point to notes of the source that are not given here. Positions of bridges follow the written chain, without caps; N, C: chain ends. Residues, ends and D or L forms follow the SMILES beside them. No end group written: not given here. Some results are limits rather than exact numbers.

Consider `CC[C@H](C)[C@H](NC(=O)[C@@H]1CSSC[C@H](NC(=O)[C@H](CCCCN)NC(=O)[C@@H](N)[C@@H](C)O)C(=O)N[C@@H](Cc2ccccc2)C(=O)N[C@@H](CCC(N)=O)C(=O)N[C@@H](Cc2c[nH]c3ccccc23)C(=O)N[C@@H](CCC(N)=O)C(=O)N[C@@H](CCCNC(=N)N)C(=O)N[C@@H](CC(N)=O)C(=O)N[C@@H](CCSC)C(=O)N[C@@H](CCCNC(=N)N)C(=O)N[C@@H](CCCCN)C(=O)N[C@@H](C(C)C)C(=O)N[C@@H](CCCNC(=N)N)C(=O)NCC(=O)N2CCC[C@H]2C(=O)N2CCC[C@H]2C(=O)N[C@@H](C(C)C)C(=O)N[C@@H](CO)C(=O)N1)C(=O)N[C@@H](CCCCN)C(=O)N[C@@H](CCCNC(=N)N)C(=O)N[C@@H](CC(=O)O)C(=O)N[C@@H](CO)C(=O)O` [hLFcin (37-61)] (H-TKCFQWQRNMRKVRGPPVSCIKRDS-OH; disulfide 3-20), for which, in data set [1], the “toxicity against normal human dermal fibroblasts NHDF-c” value is “no toxicity”. Further, the “cytotoxicity against melanoma cell line A375” value with A375 melanoma cell line is “only weak activity”. In data set [2], the “cytotoxicity against glioblastoma cell line U87 mg” value is reported as “only weak activity”.
With “FWQRRIRRWRRFWQRRIRRWRR-NH2 [DIM-PEP-318]”, the IC50 is below 20 µM in [1], below 10 µM in data set [4], below 20 µM in data set [5] and 10 µM in [8]. Further, the “non-cancer toxicity (melanocytes, NHDF)” value in [3] was “highly active”. Moreover, the “hemolytic activity (in words)” value in the data set with human red blood cells [6] (500 μg/ml peptide, 2.5% red blood cells) is “not hemolytic”. The “% lysis of 2.5% RBCs” value in the data set with human red blood cells [6] (500 μg/ml peptide) is 2.87 ± 0.57%. The “hemolysis IC50” value in the data set with human red blood cells [6] is above 500 µg/mL. In data set [7], the “cytotoxic activity against cancer cells (killing)” value is “up to 90%”.
Take PFFWRIRIRRPFFWRIRIRR-NH2 [DIM-PEP-324]: in data set [9], the “activity and selectivity for cancer cells (in words)” value (“activity and selectivity” for short) is listed as “selective for cancer cells”. Further, the “Cancer Specificity, -fold specificity for melanoma over non tumor skin cells” value in [9] (20 μM peptide) is recorded as “yes (7fold) (DIM-),”.
Taken in the same sequence, the figures for “PFWRIRIRR PFWRIRIRR (PFWRIRIRRPFWRIRIRR) [DIM-PEP-322]” were “selective for cancer cells” and “yes (50fold)”.
Turning to “PFWRIRIRR RRIRIRWFP (PFWRIRIRRRRIRIRWFP) [R-DIM-PEP-322]”, the “activity and selectivity” value in [9] is “selective for cancer cells”. In addition, the “Cancer Specificity, -fold specificity for melanoma over non tumor skin cells” value in data set [9] (20 μM peptide) is given as “(DIM-), 20fold”. Further, in data set [7], the “time to highest activity against cancer cells” value is on record as at least 8 h.
In the case of PFWRIRIRR-NH2 [PEP-322, PFWRIRIRR-NH2], the IC50 is above 80 µM in data set [1]; above 100 µM in data set [10]; above 80 µM in data set [5]; 90 µM in [11]; above 100 µM in data set [8]. Besides, the “cell viability WM164” value in data set [10] (100 μM peptide, 24 h, MTS) is “more than 70%”. Further, the “cell viability SBcl-2” value in [11] (100 μM peptide, MTS) is given as 40%. Also, the “% lysis of 2.5% RBCs” value in the data set with human red blood cells [12] was 2^b %. The viability at 24 h, 100 μM in data set [13] was above 70%.
“PFWRIRIRRD DRRIRIRWFP (PFWRIRIRRDDRRIRIRWFP) [R-DIM-PEP-323]”: the “activity and selectivity” value in [9] is reported as “selective for cancer cells”.
As for “PFWRIRIRRPRRIRIRWFP-NH2 [R-DIM-P-PEP-322, PFWRIRIRRPRRIRIRWFP-NH2]”, the IC50 was above 80 µM in data set [1], 15 µM in data set [10], 8 µM in data set [11] and 80 µM in data set [8]. Further, in [14], the “sensitivity of WM164 for the peptide” value is reported as “highly sensitive”. For the same compound, in data set [9], the “activity and selectivity” value was “cancer active and specific; also recorded: selective for cancer cells”. Moreover, in [9] (20 μM peptide, 8 h), the “specificity for cancer cells (PI-uptake ratio SBcl-2 vs. melanocytes)” value was “more than 100 fold”. Besides, the “Cancer Specificity, -fold specificity for melanoma over non tumor skin cells” value in [9] (20 μM peptide) is listed as “(R-DIM-), >100fold)”. Besides, the melanocytes killed entry in [15] is given as “less than 1%”. The “PI positive SBcl-2 cells” value in data set [5] (20 μM peptide) was “more than 80%”. For the same compound, in [16], the “blue shift of Trp emission wavelength, PS” value is given as “blue shift is only detected in presence of the target lipid PS”. Moreover, the “% lysis of 2.5% RBCs” value in the data set on human red blood cells [6] (500 μg/ml peptide) worked out at 0.84 ± 0.63%. For the same compound, the “hemolysis IC50” value in the data set on human red blood cells [6] is above 500 µg/mL. For the same compound, in data set [17], the “increase of green fluorescence (caspase-3/7 activity)” value amounted to 200 fold. Also, the “blue shift of Trp emission wavelength, PC” value in data set [18] is on record as “no blue shift appears”. In addition, in [7], the “time to highest activity against cancer cells” value lay within 4 to 8 h. In addition, the “cytotoxic activity against cancer cells (killing)” value in [7] is recorded as “up to 80%”.
Turning to “PFWRRRIRIRR RRIRIRRRWFP (PFWRRRIRIRRRRIRIRRRWFP) [R-DIM-PEP-337]”, the “activity and selectivity” value in [9] was “less specific”. Moreover, in [9] (20 μM peptide), the “Cancer Specificity, -fold specificity for melanoma over non tumor skin cells” value is listed as “(2fold) (R-DIM-)”.
As for “RWKRINRQWFFWQRNIRKWR-NH2 [R-DIM-PEP-316]”, the “activity and selectivity” value in [9] was “specific; also recorded: selective for cancer cells”. Further, the “Cancer Specificity, -fold specificity for melanoma over non tumor skin cells” value in data set [9] (20 μM peptide) is “Yes (15fold) (R-DIM-)”.

The values are drawn from US9492497B2, “Peptides for the treatment of cancer” (ÖSTERREICHISCHE AKADEMIE DER WISSENSCHAFTEN, priority 2013, dated 2016).
